{
  "source": "patent US20070219159A1",
  "about": "“CYCLODEXTRIN COMPOSITIONS AND METHODS OF TREATING VIRAL INFECTIONS” (priority 2002, published 2007)",
  "key": {"[1]": {"system": "HSV-1", "assay": "HSV-1 plaque formation / IC50 study in Vero cells", "format": "cell-based", "conditions": "for Plaques ± Std. Dev.: HSV-1 plaques per well, 48 hours"}, "[2]": {"system": "Vero cells", "conditions": "48 hours"}, "[3]": {"system": "HSV-1 strain KOS1.1", "format": "cell-based", "conditions": "for yield of cell-free and cell-associated virus: 24 hours post-infection, MOI 50, BCD 7.2 mg/ml, ACV 400 μg/ml or both, pre, during and post infection treatment (FIG. 1)"}, "[4]": {"system": "d27-lacZ1 (β-gal HSV)", "assay": "Semi-quantitative PCR of intracellular HSV DNA (HSV entry)", "conditions": "MOI 0.01 or 0.1, β-CD 7.2 mg/ml pre-, 5.4 mg/ml post-infection, versus untreated infected cells"}, "[5]": {"system": "HSV-1 strain KOS1.1", "assay": "CPE reduction assay in Vero cells, HSV-1", "format": "cell-based"}, "[6]": {"system": "Vero cells", "assay": "Cell viability by LDH release assay", "format": "cell-based", "conditions": "48 hours", "method": "FIG. 3 depicts the effects of ACV alone (400 μg/ml) and β-CD alone (8 mg/ml) on the viability of Vero cells as monitored by the LDH release assay after 24 hours of treatments (A); and after 48 hours of treatments (B). All data represents means+SD of two separate experiments.\nCell viability assay. Cell viability was determined fluorometrically by estimating the release of LDH into the media (Moran and Schnellman, 1996). LDH activity was based on the reduction of pyruvate to lactate. The concomitant oxidation of NADH results in a decrease in the fluorescence emission at 450 nm with excitation wavelength 355 nm, and the rate of disappearance of NADH is indicative of LDH activity.\nTo study the effects of formulations on viability of preformed monolayers, 3 to 4×10^6 Vero cells were added to 1× MEM-5% FBS in T75 flasks. […] Used media were replaced with 15 ml of treatment media, containing 5× MEM-FBS diluted to 1× with water (control), acyclovir stock (400 μg/ml), or β-CD stock (8 mg/ml in water). […]\nReaction solution was made fresh for each experiment by mixing 0.4 ml of 16.2 mM pyruvate with 10 ml of 0.2 mM NADH in phosphate buffer (pH 7.5). […] The amount of LDH calculated for either condition was then compared with and expressed as a percentage of the total LDH present.\nUsed media were replaced with 15 ml/flask or 2.5 ml/well of treatment media, containing 5× MEM-FBS diluted to 1× with water (control), and […]CD stock. […] Live cells are distinguished by the presence of intracellular esterase activity, as determined by the enzymatic conversion of calcein-AM (nonfluorescent) to calcein (green fluorescence). EthD-1 enters cells with damaged cell membranes and binds to nucleic acids producing red fluorescence to identify dead cells. […] For LDH assays, cells were trypsinized, resuspended in fresh 1× medium, kept at 37° C.-5% CO2 atmosphere, and total LDH present in cells and medium was determined after lysing the cells with 350 μM digitonin. The amount of LDH calculated for either condition was then compared with and expressed as a percentage of the total LDH present. […]"}, "[7]": {"system": "dlsptk (an ACV-resistant, tk deletion mutant of HSV-1)", "format": "cell-based", "conditions": "MOI 10"}, "[8]": {"assay": "Aqueous solubility", "format": "physicochemical"}, "[9]": {"conditions": "Human alphaherpesvirus 1, Vero, read-out: % of control ± SEM"}},
  "note": "Where two headings read alike, the source gives them in different places.",
  "data": [
    {"smiles": "OC[C@H]1O[C@@H]2O[C@H]3[C@H](O)[C@@H](O)[C@@H](O[C@H]4[C@H](O)[C@@H](O)[C@@H](O[C@H]5[C@H](O)[C@@H](O)[C@@H](O[C@H]6[C@H](O)[C@@H](O)[C@@H](O[C@H]7[C@H](O)[C@@H](O)[C@@H](O[C@H]8[C@H](O)[C@@H](O)[C@@H](O[C@H]1[C@H](O)[C@H]2O)O[C@@H]8CO)O[C@@H]7CO)O[C@@H]6CO)O[C@@H]5CO)O[C@@H]4CO)O[C@@H]3CO", "note": "[BCD, β-cyclodextrin]", "values": [
      {"measurement": "Plaques ± Std. Dev.", "setting": "[1]; BCD 3.5 mg/ml", "value": "119.0 ± 1.0"},
      {"measurement": "Plaques ± Std. Dev.", "setting": "[1]; BCD 4.0 mg/ml", "value": "111.0 ± 6.6"},
      {"measurement": "Plaques ± Std. Dev.", "setting": "[1]; BCD 4.5 mg/ml", "value": "84.0 ± 10.53"},
      {"measurement": "Plaques ± Std. Dev.", "setting": "[1]; BCD 5.0 mg/ml", "value": "74.67 ± 4.51"},
      {"measurement": "Plaques ± Std. Dev.", "setting": "[1]; BCD 5.5 mg/ml", "value": "54.67 ± 5.68"},
      {"measurement": "Plaques ± Std. Dev.", "setting": "[1]; BCD 6.0 mg/ml", "value": "<10"},
      {"measurement": "IC50", "setting": "[1]; Human alphaherpesvirus 1, Vero, 48 h", "value": 5100, "unit": "µg/mL"},
      {"measurement": "activity at 3500 µg/mL", "setting": "[1]; [9]", "value": "85.2 ± 0.58", "unit": "%"},
      {"measurement": "activity at 4000 µg/mL", "setting": "[1]; [9]", "value": "79.5 ± 3.8", "unit": "%"},
      {"measurement": "activity at 4500 µg/mL", "setting": "[1]; [9]", "value": "60.1 ± 6.08", "unit": "%"},
      {"measurement": "activity at 5000 µg/mL", "setting": "[1]; [9]", "value": "53.5 ± 2.6", "unit": "%"},
      {"measurement": "activity at 5500 µg/mL", "setting": "[1]; [9]", "value": "39.1 ± 3.28", "unit": "%"},
      {"measurement": "cell viability (normalized to control cells)", "setting": "[2]; 5.5 mg/ml BCD", "value": 91.23, "unit": "%"},
      {"measurement": "cell viability (normalized to control cells)", "setting": "[2]; 7.2 mg/ml BCD", "value": 84.89, "unit": "%"},
      {"measurement": "cytotoxicity", "setting": "[2]; maximum concentration of BCD", "value": "< 15", "unit": "%"},
      {"measurement": "reduction of KOS1.1 virus yield at 24 hours", "setting": "[3]; 6.4 mg/ml BCD, MOI 10, post-infection treatment", "value": "approximately 10^3 fold"},
      {"measurement": "yield of cell-free and cell-associated virus", "setting": "[3]", "value": "more effective at reducing virus numbers than ACV alone"},
      {"measurement": "yield of cell-free and cell-associated virus", "setting": "[3]; listed as β-CD", "value": "reduced to a greater extent by β-CD than by a fairly high concentration of acyclovir"},
      {"measurement": "effect on yield of acyclovir-sensitive HSV KOS1.1 (FIG. 2)", "setting": "[3]; MOI 10, 20 μM ACV or 6.4 mg/ml β-CD for 24 hours", "value": "lowered the yield"},
      {"measurement": "amount of intracellular viral DNA / viral entry", "setting": "[4]", "value": "did not significantly alter viral entry"},
      {"measurement": "amount of intracellular viral DNA / viral entry", "setting": "[4]; listed as β-CD", "value": "No significant differences"},
      {"measurement": "protection of Vero cells by inhibition of viral CPE", "setting": "[5]; HSV-1, MOI 0.001 and 0.1, BCD 7-8 mg/ml", "value": "almost complete protection"},
      {"measurement": "inhibition of infection, direct microscopy and crystal violet staining", "setting": "[5]; HSV-1, MOI 2.0 (data not shown)", "value": "inhibited infection"},
      {"measurement": "anti-herpes effects at high multiplicity of infection", "setting": "[5]; HSV-1, MOI >50, BCD 7-8 mg/ml", "value": "exhibited anti-herpes effects"},
      {"measurement": "anti-HSV activity compared with acyclovir", "setting": "[5]; β-CD 7.2 mg/ml", "value": "comparable to acyclovir in the range of 200 to 400 μg/ml"},
      {"measurement": "cell viability (LDH assay)", "setting": "[6]; 8.0 mg/ml BCD", "value": 68.57, "unit": "%"},
      {"measurement": "decrease in cell viability", "setting": "[6]; β-CD 8 mg/ml, Vero cells", "value": "30-40%"},
      {"measurement": "reduction of ACV-resistant virus yield", "setting": "[7]; 6.4 mg/ml BCD, 24 hours", "value": "approximately 10^3 PFU"},
      {"measurement": "effect on yield of acyclovir-resistant dlsptk virus (FIG. 2)", "setting": "[7]; 20 μM (4.5 μg/ml) ACV or 6.4 mg/ml β-CD for 24 hours", "value": "lowered the yield"},
      {"measurement": "solubility", "setting": "[8]; read-out: concentration at which solubility becomes a limiting issue", "value": "> 8000", "unit": "µg/mL"},
      {"measurement": "solubility", "setting": "[8]; water, read-out: concentrations at which insoluble in water", "value": "> 10000", "unit": "µg/mL"}
    ]}
  ]
}
